This is an account of results in a compilation of properties of binary mixtures (doi:10.1016/j.fluid.2017.10.015).

A short description of this data set: xn = mol fraction of the nth substance listed. The note with it: 100 kPa.

Several values for one entry are separate records, joined by “and”; a condition that tells them apart may be missing. Equal entries are not always repeated.

With `O` + CCCCCCCCCCCC[N+]1(C)CCCC1.O=C([O-])c1ccccc1O, the electrical conductivity (298.15 K, x2 = 0) was 0.0089 S/m and 0.0093 S/m and 0.0105 S/m; the electrical conductivity (308.15 K, x2 = 0) is 0.0116 S/m and 0.0126 S/m and 0.0139 S/m; the electrical conductivity (318.15 K, x2 = 0) is 0.0153 S/m and 0.0171 S/m; the electrical conductivity (328.15 K, x2 = 0) is 0.0172 S/m and 0.0186 S/m and 0.0212 S/m.

On to `CCCCCCCCCCCC[N+]1(C)CCCCC1.O=C([O-])c1ccccc1O` + O, for which the electrical conductivity (328.15 K, x1 = 0.0001) was determined as 0.0271 S/m.

With `CCCCCCCCCCCC[N+]1(C)CCCC1.O=C([O-])c1ccccc1O` + O, the electrical conductivity is 0.0115 S/m (298.15 K, x1 = 0.0001); 0.0161 S/m (308.15 K, x1 = 0.0001); 0.0185 S/m and 0.0235 S/m (318.15 K, x1 = 0.0001); 0.0231 S/m and 0.0293 S/m (328.15 K, x1 = 0.0001).
